From US4652548A (Eli Lilly and Company, priority 1984, dated 1987)

Tests used:
[1] = test system: fasting Type II diabetic patients; experiment: Subcutaneous administration to fasting Type II diabetic patients: plasma glucose; assay type: in vivo, human
HGO = test system: HGO
Description: For example, in non-insulin dependent diabetes mellitus (NIDDM), one of the major metabolic abnormalities that maintains the resultant hyperglycemic state is accelerated hepatic glucose production.

[2] = five Type II subjects, 0.2 U/kg s.c.
[3] = test system: insulin-degrading proteases; conditions: subcutaneous injection site

## human proinsulin: human proinsulin, available by organic synthesis, isolation from human pancreas or recombinant DNA methodology
[1]; subject one, total dose 14.8 I.U. (0.2 U/kg s.c.), 0 min after injection
  Plasma Glucose: 213 mg/dL
[1]; subject one, total dose 14.8 I.U. (0.2 U/kg s.c.), 40 min after injection
  Plasma Glucose: 203 mg/dL
[1]; subject one, total dose 14.8 I.U. (0.2 U/kg s.c.), 80 min after injection
  Plasma Glucose: 187 mg/dL
[1]; subject one, total dose 14.8 I.U. (0.2 U/kg s.c.), 160 min after injection
  Plasma Glucose: 140 mg/dL
[1]; subject one, total dose 14.8 I.U. (0.2 U/kg s.c.), 240 min after injection
  Plasma Glucose: 81 mg/dL
[1]; subject one, total dose 14.8 I.U. (0.2 U/kg s.c.), 280 min after injection
  Plasma Glucose: 77 mg/dL
[1]; subject one, total dose 14.8 I.U. (0.2 U/kg s.c.), 300 min after injection
  Plasma Glucose: 80 mg/dL
[1]; subject one, total dose 14.8 I.U. (0.2 U/kg s.c.), 320 min after injection
  Plasma Glucose: 80 mg/dL
[1]; subject three, total dose 27.2 I.U. (0.2 U/kg s.c.), 0 min after injection
  Plasma Glucose: 159 mg/dL
[1]; subject three, total dose 27.2 I.U. (0.2 U/kg s.c.), 40 min after injection
  Plasma Glucose: 144 mg/dL
[1]; subject three, total dose 27.2 I.U. (0.2 U/kg s.c.), 120 min after injection
  Plasma Glucose: 128 mg/dL
[1]; subject three, total dose 27.2 I.U. (0.2 U/kg s.c.), 200 min after injection
  Plasma Glucose: 110 mg/dL
[1]; subject three, total dose 27.2 I.U. (0.2 U/kg s.c.), 240 min after injection
  Plasma Glucose: 101 mg/dL
[1]; subject three, total dose 27.2 I.U. (0.2 U/kg s.c.), 280 min after injection
  Plasma Glucose: 98 mg/dL
[1]; subject three, total dose 27.2 I.U. (0.2 U/kg s.c.), 300 min after injection
  Plasma Glucose: 88 mg/dL
[1]; subject three, total dose 27.2 I.U. (0.2 U/kg s.c.), 360 min after injection
  Plasma Glucose: 84 mg/dL
[1]; subject three, total dose 27.2 I.U. (0.2 U/kg s.c.), 400 min after injection
  Plasma Glucose: 85 mg/dL
[1]; subject three, total dose 27.2 I.U. (0.2 U/kg s.c.), 440 min after injection
  Plasma Glucose: 86 mg/dL
[1]; subject three, total dose 27.2 I.U. (0.2 U/kg s.c.), 480 min after injection
  Plasma Glucose: 88 mg/dL
[1]; subject two, total dose 20.0 I.U. (0.2 U/kg s.c.), 0 min after injection
  Plasma Glucose: 231 mg/dL
[1]; subject two, total dose 20.0 I.U. (0.2 U/kg s.c.), 40 min after injection
  Plasma Glucose: 217 mg/dL
[1]; subject two, total dose 20.0 I.U. (0.2 U/kg s.c.), 80 min after injection
  Plasma Glucose: 201 mg/dL
[1]; subject two, total dose 20.0 I.U. (0.2 U/kg s.c.), 120 min after injection
  Plasma Glucose: 191 mg/dL
[1]; subject two, total dose 20.0 I.U. (0.2 U/kg s.c.), 160 min after injection
  Plasma Glucose: 182 mg/dL
[1]; subject two, total dose 20.0 I.U. (0.2 U/kg s.c.), 240 min after injection
  Plasma Glucose: 164 mg/dL
[1]; subject two, total dose 20.0 I.U. (0.2 U/kg s.c.), 280 min after injection
  Plasma Glucose: 143 mg/dL
[1]; subject two, total dose 20.0 I.U. (0.2 U/kg s.c.), 300 min after injection
  Plasma Glucose: 134 mg/dL
[1]; subject two, total dose 20.0 I.U. (0.2 U/kg s.c.), 360 min after injection
  Plasma Glucose: 128 mg/dL
[1]; subject two, total dose 20.0 I.U. (0.2 U/kg s.c.), 400 min after injection
  Plasma Glucose: 117 mg/dL
[1]; subject two, total dose 20.0 I.U. (0.2 U/kg s.c.), 440 min after injection
  Plasma Glucose: 112 mg/dL
[1]; subject two, total dose 20.0 I.U. (0.2 U/kg s.c.), 480 min after injection
  Plasma Glucose: 104 mg/dL
[1]; subject two, total dose 20.0 I.U. (0.2 U/kg s.c.), 500 min after injection
  Plasma Glucose: 100 mg/dL
[1]; subject, total dose 15.0 I.U. (0.2 U/kg s.c.), 0 min after injection
  Plasma Glucose: 332 mg/dL
[1]; subject, total dose 15.0 I.U. (0.2 U/kg s.c.), 40 min after injection
  Plasma Glucose: 328 mg/dL
[1]; subject, total dose 15.0 I.U. (0.2 U/kg s.c.), 80 min after injection
  Plasma Glucose: 308 mg/dL
[1]; subject, total dose 15.0 I.U. (0.2 U/kg s.c.), 120 min after injection
  Plasma Glucose: 288 mg/dL
[1]; subject, total dose 15.0 I.U. (0.2 U/kg s.c.), 160 min after injection
  Plasma Glucose: 272 mg/dL
[1]; subject, total dose 15.0 I.U. (0.2 U/kg s.c.), 200 min after injection
  Plasma Glucose: 247 mg/dL
[1]; subject, total dose 15.0 I.U. (0.2 U/kg s.c.), 240 min after injection
  Plasma Glucose: 210 mg/dL
[1]; subject, total dose 15.0 I.U. (0.2 U/kg s.c.), 280 min after injection
  Plasma Glucose: 174 mg/dL
[1]; subject, total dose 15.0 I.U. (0.2 U/kg s.c.), 360 min after injection
  Plasma Glucose: 94 mg/dL
HGO; circulating concentration approximately 1.5-2 pmol/ml
  Expected suppression of HGO in NIDDM subjects: approximately 50%
HGO; sustained level 1.5-2 pmol/ml for about 3 hours by CSII or single s.c. injection
  Expected duration of adequate glycemic control: 8 to 10 h
[2]
  Mean peak hormone blood level: 6.8 pmol/mL
  Time of mean peak hormone blood level: 230 ± 33 min
[3]
  Degradation by insulin-degrading proteases: not degraded
